Data on two compounds can be found in patent US10336763B1, “Crystal form B of ribociclib succinate” (Chunghwa Chemical Synthesis & Biotech Co. Ltd., priority 2018, dated 2019).

This data set in a line: crystalline stability in constant temperature and humidity chamber. The data set is classed as physicochemical.
The mark [1] stands for this setting: 25° C./75% RH, summary of 1 to 7 days.
[2] abbreviates: 80° C./75% RH, summary of 1 to 7 days.
The mark [3] stands for this setting: powder exposed to 25° C., 75%RH, 1 day.
Setting [4] is: powder exposed to 25° C., 75%RH, 3 days.
Setting [5] is: powder exposed to 25° C., 75%RH, 7 days.
The mark [6] stands for this setting: powder exposed to 80° C., 75%RH, 1 day.
Setting [7] is: powder exposed to 80° C., 75%RH, 3 days.
Setting [8] is: powder exposed to 80° C., 75%RH, 7 days.

In the case of `CN(C)C(=O)c1cc2cnc(Nc3ccc(N4CCNCC4)cn3)nc2n1C1CCCC1.O=C(O)CCC(=O)O` [Ribociclib succinate in crystalline form A] [butanedioicacid-7-cyclopentyl-N,N-dimethyl-2-[(5-piperazin-1-ylpyridin-2-yl)amino]pyrrolo[2,3-D]pyrimidine-6-carboxamide], the “crystalline form (crystalline stability)” value by setting is: under setting [1], “maintained its crystalline form”; under setting [2], “transformed from crystalline form A to crystalline form B”; under setting [3], “Stayed as A”; under setting [4], “Stayed as A”; under setting [5], “Stayed as A”; under setting [6], “Transformed from A to B”. In addition, the “crystalline form (crystalline stability)” value was “Transformed from A to B” under setting [7] and “Transformed from A to B” under setting [8].

Consider `CN(C)C(=O)c1cc2cnc(Nc3ccc(N4CCNCC4)cn3)nc2n1C1CCCC1.O=C(O)CCC(=O)O` [Ribociclib succinate in crystalline form B] [butanedioicacid-7-cyclopentyl-N,N-dimethyl-2-[(5-piperazin-1-ylpyridin-2-yl)amino]pyrrolo[2,3-D]pyrimidine-6-carboxamide], for which the “crystalline form (crystalline stability)” value is “maintained its crystalline form and did not transform to other crystalline forms” under setting [1]; “maintained its crystalline form and did not transform to other crystalline forms” under setting [2]; “Stayed as B” under setting [3]; “Stayed as B” under setting [4]; “Stayed as B” under setting [5]; “Stayed as B” under setting [6]. Besides, the “crystalline form (crystalline stability)” value reads like this: under setting [7], “Stayed as B”; under setting [8], “Stayed as B”.
